Each molecule was assayed against activated ERK2 (Homo sapiens (Human), UniProt P28482) (assay: Activated ERK2 (20 pM) Kinase Assay (AlphaScreen, ERKtide phosphorylation)). Conditions: 0.02 nM ERK2, 400 nM ERKtide peptide, 35 μM ATP, 30 min preincubation.
Type: biochemical
Description: Activated ERK2 (20 pM) Kinase Assay:
The assay was carried out in 20 mM HEPES [pH 7.5], 5 mM MgCl2, 1 mM DTT, 0.01% Tween-20, 0.05% BSA using 0.02 nM ERK2, 400 nM ERKtide peptide and 35 μM ATP (all concentrations are final in the reaction) in a total volume of 10.25 μL. […] Compound dilution series were prepared in 100% DMSO. ERK2 was preincubated with compounds for 30 minutes at ambient temperature. Reaction was initiated by addition of a substrate cocktail of ERKtide peptide and ATP and was allowed to proceed for 4 hours at ambient temperature. Reaction was terminated by addition of 10 μL of a 2× stop buffer consisting of 100 mM Tris-Cl [pH 7.5], 25 mM EDTA, 0.01% Tween 20, 20 μg/mL of AlphaScreen Protein A Acceptor Beads, 20 μg/mL of Streptavidin Donor Beads (PerkinElmer, Waltham, Mass.), and 1:1000 dilution phospho-EGF Receptor (Thr669) antibody (Cat #8808, Cell Signaling Technology, Danvers, Mass.). Terminated reactions were read, after overnight incubation in the dark, on an EnVision Multilabel Plate Reader (PerkinElmer, Waltham, Mass.), with excitation and emission wavelengths set to 680 nm and 570 nm, respectively. IC50 values were determined using a four-parameter fit.

Sequence of activated ERK2 (P28482 whole entry): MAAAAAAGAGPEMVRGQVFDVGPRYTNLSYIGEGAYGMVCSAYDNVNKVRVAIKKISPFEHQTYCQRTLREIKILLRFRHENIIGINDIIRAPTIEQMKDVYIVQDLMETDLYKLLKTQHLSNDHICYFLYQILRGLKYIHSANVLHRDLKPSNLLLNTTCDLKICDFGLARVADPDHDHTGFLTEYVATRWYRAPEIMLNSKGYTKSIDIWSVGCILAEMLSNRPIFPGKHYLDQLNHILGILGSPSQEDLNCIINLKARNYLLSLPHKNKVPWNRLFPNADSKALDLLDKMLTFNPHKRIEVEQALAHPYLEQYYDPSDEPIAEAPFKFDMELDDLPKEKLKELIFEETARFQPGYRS

SMILES	IC50 [nM]
Nc1ncc(C2CCOCC2)nc1-c1ccc(C(=O)N[C@H](CNCCF)c2cc(F)cc(Br)c2)c(F)c1 [Example 411, (S)-4-(3-amino-6-(tetrahydro-2H-pyran-4-yl)pyrazin-2-yl)-N-(1-(3-bromo-5-fluorophenyl)-2-((2-fluoroethyl)amino)ethyl)-2-fluorobenzamide]	0.0743
Nc1ncc(C(=O)N2CCOCC2)cc1-c1ccc(C(=O)N[C@H](CO)c2cc(F)cc(Br)c2)c(F)c1 [Example 474, (S)-4-(2-amino-5-(morpholine-4-carbonyl)pyridin-3-yl)-N-(1-(3-bromo-5-fluorophenyl)-2-hydroxyethyl)-2-fluorobenzamide]	1.56
C[C@]1(O)CC[C@@H](c2cnc(N)c(-c3ccc(C(=O)N[C@H](CO)c4cccc(Cl)c4)c(F)c3)n2)CC1 [Example 105, 4-(3-amino-6-((1s,4R)-4-hydroxy-4-methylcyclohexy)pyrazin-2-yl)-N-((S)-1-(3-chlorophenyl)-2-hydroxyethyl)-2-fluorobenzamide]	2.56
NC[C@@H](NC(=O)c1ccc(-c2nc(C3CCCC(O)C3)cnc2N)cc1F)c1cccc(Cl)c1 (single isomer, unassigned) [Example 370]	0.138
NC[C@@H](NC(=O)c1ccc(-c2nc(C3CCCC(O)C3)cnc2N)cc1F)c1cccc(Cl)c1 (single isomer, unassigned) [Example 367]	0.15
COC(=O)NC[C@@H](NC(=O)c1ccc(-c2nc(C3CCOCC3)cnc2N)cc1F)c1cc(F)cc(Br)c1 [Example 410, (S)-methyl (2-(4-(3-amino-6-(tetrahydro-2H-pyran-4-yl)pyrazin-2-yl)-2-fluoro-benzamido)-2-(3-bromo-5-fluorophenyl)ethyl) carbamate]	0.0943
COC(=O)NC[C@@H](NC(=O)c1ccc(-c2nc(C3CCOCC3)cnc2N)cc1F)c1cccc(Br)c1 [Example 409, (S)-methyl (2-(4-(3-amino-6-(tetrahydro-2H-pyran-4-yl)pyrazin-2-yl)-2-fluoro-benzamido)-2-(3-bromophenyl)ethyl)carbamate]	0.225
CO[C@H]1CC[C@H](c2cnc(N)c(-c3ccc(C(=O)N[C@H](CNC(C)=O)c4cccc(Cl)c4)c(F)c3)n2)CC1 [Example 406, N-((S)-2-acetamido-1-(3-chlorophenyl)ethyl)-4-(3-amino-6-((1r,4S)-4-methoxy-cyclohexyl)pyrazin-2-yl)-2-fluorobenzamide]	0.249
Cc1c(-c2cnc(N)c(-c3ccc(C(=O)N[C@H](C)c4cc(F)cc(S(C)(=O)=O)c4)c(F)c3)c2)cnn1C(F)F [Example 278, (R)-4-(2-amino-5-(1-(difluoromethyl)-5-methyl-1H-pyrazol-4-yl)pyridin-3-yl)-2-fluoro-N-(1-(3-fluoro-5-(methylsulfonyl)phenyl)ethyl) benzamide]	0.146
Cc1c(-c2cnc(N)c(-c3ccc(C(=O)N[C@H](CO)c4cccc(CF)c4)c(F)c3)c2)cnn1C(F)F [Example 260, (S)-4-(2-amino-5-(1-(difluoromethyl)-5-methyl-1H-pyrazol-4-yl)pyridin-3-yl)-2-fluoro-N-(1-(3-(fluoromethyl)phenyl)-2-hydroxyethyl) benzamide]	0.0208
Nc1ncc(C(=O)N2CCOCC2)nc1-c1ccc(C(=O)N[C@H](CO)c2cc(F)cc(Br)c2)c(F)c1 [Example 473, (S)-4-(3-amino-6-(morpholine-4-carbonyl)pyrazin-2-yl)-N-(1-(3-bromo-5-fluorophenyl)-2-hydroxyethyl)-2-fluorobenzamide]	10.5
Nc1ncc(C2CCOCC2)nc1-c1ccc(C(=O)N[C@H](CO)c2cccc(Br)c2)c(F)c1 [Example 258, (S)-4-(3-amino-6-(tetrahydro-2H-pyran-4-yl)pyrazin-2-yl)-N-(1-(3-bromophenyl)-2-hydroxyethyl)-2-fluorobenzamide]	0.0343
CO[C@H]1CC[C@H](c2cnc(N)c(-c3ccc(C(=O)N[C@H](CN)c4cccc(Br)c4)c(F)c3)n2)CC1 [Example 383, N-((S)-2-amino-1-(3-bromophenyl)ethyl)-4-(3-amino-6-((1r,4S)-4-methoxy-cyclohexyl)pyrazin-2-yl)-2-fluorobenzamide]	0.0689
NC[C@@H](NC(=O)c1ccc(-c2nc(C3CCCCC3)cnc2N)cc1F)c1cccc(Cl)c1 [Example 228, (S)-N-(2-amino-1-(3-chlorophenyl)ethyl)-4-(3-amino-6-cyclohexylpyrazin-2-yl)-2-fluorobenzamide]	0.0505
Cn1cc(-c2cnc(N)c(-c3ccc(C(=O)N[C@H](CO)c4cc(F)cc(C(F)F)c4)c(F)c3)c2)cn1 [Example 253, (S)-4-(2-amino-5-(1-methyl-1H-pyrazol-4-yl)pyridin-3-yl)-N-(1-(3-(difluoromethyl)-5-fluorophenyl)-2-hydroxyethyl)-2-fluorobenzamide]	0.106

Continued, values first:

IC50 [nM]	SMILES
0.653	Nc1ncc([C@H]2CC[C@@H](O)[C@@H](F)C2)nc1-c1ccc(C(=O)N[C@H](CO)c2cc(F)cc(Br)c2)c(F)c1 [Example 186, 4-(3-amino-6-((1S,3S,4R)-3-fluoro-4-hydroxycyclohexyl)pyrazin-2-yl)-N—((S)-1-(3-bromo-5-fluorophenyl)-2-hydroxyethyl)-2-fluorobenzamide]
0.0209	CNC[C@@H](NC(=O)c1ccc(-c2nc([C@H]3CC[C@H](O)CC3)cnc2N)cc1F)c1cccc(Br)c1 [Example 381, 4-(3-amino-6-((1r,4S)-4-hydroxy-cyclohexyl)pyrazin-2-yl)-N-((S)-1-(3-bromophenyl)-2-(methylamino)ethyl)-2-fluorobenzamide]
0.0269	CSc1cccc([C@@H](CO)NC(=O)c2ccc(-c3nc([C@H]4CC[C@H](O)CC4)cnc3N)cc2F)c1 [Example 388, 4-(3-amino-6-((1r,4S)-4-hydroxy-cyclohexyl)pyrazin-2-yl)-2-fluoro-N-((S)-2-hydroxy-1-(3-(methylthio)phenyl)ethyl)benzamide]
0.0308	Nc1ncc(C2CCCC(O)C2)nc1-c1ccc(C(=O)N[C@H](CO)c2cccc(Br)c2)c(F)c1 (single isomer, unassigned) [Example 389]
0.0435	Nc1ncc([C@H]2CC[C@H](O)CC2)nc1-c1ccc(C(=O)N[C@H](CO)c2cc(F)cc(C(F)F)c2)c(F)c1 [Example 337, 4-(3-amino-6-((1r,4S)-4-hydroxycyclohexy)pyrazin-2-yl)-N-((S)-1-(3-(difluoromethyl)-5-fluorophenyl)-2-hydroxyethyl)-2-fluorobenzamide]
0.0614	Nc1ncc(C2CCCC(O)C2)nc1-c1ccc(C(=O)N[C@H](CO)c2cc(F)cc(Br)c2)c(F)c1 (single isomer, unassigned) [Example 384]
0.251	Nc1ncc([C@@H]2CC[C@H](O)[C@H](O)C2)nc1-c1ccc(C(=O)N[C@H](CO)c2cc(F)cc(Br)c2)c(F)c1 [Example 468, 4-(3-amino-6-((1R,3R,4S)-3,4-dihydroxy-cyclohexyl)pyrazin-2-yl)-2-fluoro-N-((S)-1-(3-fluoro-5-bromophenyl)-2-hydroxyethyl) benzamide]
0.0446	Nc1ncc([C@H]2CC[C@H](O)[C@@H](O)C2)nc1-c1ccc(C(=O)N[C@H](CO)c2cc(F)cc(Br)c2)c(F)c1 [Example 467, 4-(3-amino-6-((1S,3S,4S)-3,4-dihydroxy-cyclohexyl)pyrazin-2-yl)-2-fluoro-N-((S)-1-(3-fluoro-5-bromophenyl)-2-hydroxyethyl) benzamide]
0.193	Nc1ncc([C@H]2CC[C@@H](O)CC2)nc1-c1ccc(C(=O)N[C@H](CO)c2cccc(I)c2)c(F)c1 [Example 347, 4-(3-amino-6-((1s,4R)-4-hydroxy-cyclohexyl)pyrazin-2-yl)-2-fluoro-N-((S)-2-hydroxy-1-(3-iodophenyl)ethyl) benzamide]
0.115	Nc1ncc(C2CCCC(O)C2)nc1-c1ccc(C(=O)N[C@H](CO)c2cccc(Cl)c2)c(F)c1 (single isomer, unassigned) [Example 391]
0.136	CO[C@H]1CC[C@H](c2cnc(N)c(-c3ccc(C(=O)N[C@H](CO)c4cc(F)cc(Br)c4)c(F)c3)n2)C[C@@H]1O [Example 469, 4-(3-amino-6-((1S,3S,4S)-3-hydroxy,4-methoxylcyclo-hexyl)pyrazin-2-yl)-2-fluoro-N-((S)-1-(3-fluoro-5-bromophenyl)-2-hydroxyethyl) benzamide]
0.0107	CO[C@H]1CC[C@H](c2cnc(N)c(-c3ccc(C(=O)N[C@H](CN)c4cc(F)cc(I)c4)c(F)c3)n2)CC1 [Example 382, N-((S)-2-amino-1-(3-fluoro-5-iodophenyl)ethyl)-4-(3-amino-6-((1r,4S)-4-methoxy-cyclohexyl)pyrazin-2-yl)-2-fluorobenzamide]
0.281	C[C@@H](O)[C@@H](NC(=O)c1ccc(-c2nc([C@H]3CC[C@H](O)CC3)cnc2N)cc1F)c1cccc(Cl)c1 [Example 398, 4-(3-amino-6-((1r,4S)-4-hydroxy-cyclohexyl)pyrazin-2-yl)-N-((1S,2R)-1-(3-chlorophenyl)-2-hydroxypropyl)-2-fluorobenzamide]
0.0397	Nc1ncc([C@H]2CC[C@H](O)C(F)(F)C2)nc1-c1ccc(C(=O)N[C@H](CO)c2cc(F)cc(Br)c2)c(F)c1 [Example 460, 4-(3-amino-6-((1S,4S)-3,3-difluoro-4-hydroxy-cyclohexyl)pyrazin-2-yl)-2-fluoro-N-((S)-1-(3-fluoro-5-bromophenyl)-2-hydroxyethyl) benzamide]
